# Source: publication PMC11456916, “A screen for cell envelope stress uncovers an inhibitor of prolipoprotein diacylglyceryl transferase, Lgt, in Escherichiacoli” (iScience, 2024)
# System: 356 CRISPRi constructs in E. coli ΔtolC-pore
# Experiment: CRISPRi collection fitness screen with sub-inhibitory compound
# Format: cell-based
# Details: for Growth represented as mean colony biomass: 1μg/ml MAC0452936, 6ng/ml LolCDE-in-1, 250 ng/ml Vancomycin, 7 ng/ml CHIR090, n=4; for Growth, mean colony biomass (n=4): + 6ng/ml LolCDE-in-1
# From the text: To that end, we screened the E. coli CRISPRi collection in the ΔtolC-pore genetic background with a sub-inhibitory concentration of MAC-0452936 and measured the fitness of all 356 CRISPRi mutants (Figure 4C and Data S4). […] To that end, we introduced either an arabinose inducible copy of lgt supplied on the pCHAP9231 plasmid[48] or the pBAD19s plasmid as a control into E. coli ΔtolC-pore and tested the potency of MAC-0452936 (Figure 4E). […] To test this hypothesis, we constructed E. coli ΔlgtΔtolC-pore with pCHAP9231[48] so that lgt expression was driven solely by arabinose from the plasmid.
# For screens of the CRISPRi collection with MAC-0452936, the mobile CRISPRi collection was first conjugated into E. coli ΔtolC-pore as previously described.[30] The CRISPRi collection was then arrayed on solid agar at 1536 density using the Singer-ROTOR, such that each CRISPRi strain is arrayed in technical quadruplicate. […] The screens were conducted without CRISPRi induction, using just the 5–10% basal knockdown from the pFD152 CRISPRi plasmid. Following overnight growth, plates were imaged using high-resolution scanners (Epson Perfection v750), and colony biomass for each mutant was determined.
# [1] = sub-inhibitory (¼ MIC) concentration, LB agar, basal knockdown
compound,measurement,setting,value
Fc1ccc(COc2cccc(-c3[nH]ncc3-c3ccncc3)c2)cc1 [LolCDE-in-1],Growth represented as mean colony biomass,gRNA accA,1.008
same,"Growth, mean colony biomass (n=4)",gRNA aceF,1.072
same,"Growth, mean colony biomass (n=4)",gRNA alaS,1.101
same,"Growth, mean colony biomass (n=4)",gRNA argS,1.113
same,"Growth, mean colony biomass (n=4)",gRNA asnS,1.091
same,"Growth, mean colony biomass (n=4)",gRNA bamA,1.074
same,"Growth, mean colony biomass (n=4)",gRNA bamD,0.9928
same,"Growth, mean colony biomass (n=4)",gRNA bioA,1.016
same,"Growth, mean colony biomass (n=4)",gRNA can,1.04
same,Growth represented as mean colony biomass,gRNA cca,1
same,Growth represented as mean colony biomass,gRNA coaA,1.117
same,"Growth, mean colony biomass (n=4)",gRNA csrA,0.5912
same,Growth represented as mean colony biomass,gRNA cydA,1.002
same,Growth represented as mean colony biomass,gRNA cydX,0.9564
same,Growth represented as mean colony biomass,gRNA dapD,0.9627
same,Growth represented as mean colony biomass,gRNA dapE,0.9407
same,Growth represented as mean colony biomass,gRNA der,0.9198
same,Growth represented as mean colony biomass,gRNA dfp,0.9029
same,"Growth, mean colony biomass (n=4)",gRNA dnaC,1.011
same,Growth represented as mean colony biomass,gRNA dnaE,1.003
same,Growth represented as mean colony biomass,gRNA dnaN,0.9294
same,Growth represented as mean colony biomass,gRNA dnaX,0.8532
same,"Growth, mean colony biomass (n=4)",gRNA dut,1.113
same,Growth represented as mean colony biomass,gRNA eno,1.0061
same,Growth represented as mean colony biomass,gRNA era,0.9669
same,Growth represented as mean colony biomass,gRNA fabA,0.9879
same,Growth represented as mean colony biomass,gRNA fabG,0.9717
same,Growth represented as mean colony biomass,gRNA fabI,0.9771
same,Growth represented as mean colony biomass,gRNA fdx,0.998
same,Growth represented as mean colony biomass,gRNA fldA,1.014
same,"Growth, mean colony biomass (n=4)",gRNA folA,1.074
same,Growth represented as mean colony biomass,gRNA folB,1.004
same,"Growth, mean colony biomass (n=4)",gRNA folC,0.9924
same,Growth represented as mean colony biomass,gRNA folE,1.028
same,Growth represented as mean colony biomass,gRNA folP,1.013
same,Growth represented as mean colony biomass,gRNA frr,0.8456
same,"Growth, mean colony biomass (n=4)",gRNA ftsA,0.866
same,Growth represented as mean colony biomass,gRNA gapA,0.9875
same,"Growth, mean colony biomass (n=4)",gRNA glmS,1.023
same,Growth represented as mean colony biomass,gRNA glmU,0.9948
same,Growth represented as mean colony biomass,gRNA gltX,1.01
same,"Growth, mean colony biomass (n=4)",gRNA glyA,0.9609
same,Growth represented as mean colony biomass,gRNA groS,0.8911
same,Growth represented as mean colony biomass,gRNA grpE,0.9325
same,Growth represented as mean colony biomass,gRNA guaA,1.005
same,"Growth, mean colony biomass (n=4)",gRNA hemD,1.064
same,Growth represented as mean colony biomass,gRNA hemG,0.9487
same,Growth represented as mean colony biomass,gRNA hemH,0.9202
same,Growth represented as mean colony biomass,gRNA hemL,0.9936
same,Growth represented as mean colony biomass,gRNA higA,0.9523
same,Growth represented as mean colony biomass,gRNA hisS,0.9867
same,Growth represented as mean colony biomass,gRNA holD,1.037
same,Growth represented as mean colony biomass,gRNA hscA,1.068
same,"Growth, mean colony biomass (n=4)",gRNA infA,1.13
same,Growth represented as mean colony biomass,gRNA infC,0.9943
same,Growth represented as mean colony biomass,gRNA iscU,0.9298
same,Growth represented as mean colony biomass,gRNA ispB,0.9724
same,Growth represented as mean colony biomass,gRNA ispF,0.9965
same,"Growth, mean colony biomass (n=4)",gRNA leuS,1.148
same,"Growth, mean colony biomass (n=4)",gRNA lexA,0.4661
same,Growth represented as mean colony biomass,gRNA lolC,0.5845
same,"Growth, mean colony biomass (n=4)",gRNA lptA,1.047
same,"Growth, mean colony biomass (n=4)",gRNA lptB,0.9337
same,Growth represented as mean colony biomass,gRNA lptC,0.8997
same,Growth represented as mean colony biomass,gRNA lptE,0.9982
same,Growth represented as mean colony biomass,gRNA lptF,0.9678
same,Growth represented as mean colony biomass,gRNA lptG,1.0135
same,Growth represented as mean colony biomass,gRNA lpxC,0.9296
same,Growth represented as mean colony biomass,gRNA lpxD,0.9894
same,"Growth, mean colony biomass (n=4)",gRNA mnmA,1.137
same,"Growth, mean colony biomass (n=4)",gRNA mrdB,0.9351
same,Growth represented as mean colony biomass,gRNA mreB,0.9708
same,Growth represented as mean colony biomass,gRNA mreC,0.8551
same,"Growth, mean colony biomass (n=4)",gRNA msbA,1.057
same,"Growth, mean colony biomass (n=4)",gRNA mukF,0.8694
same,Growth represented as mean colony biomass,gRNA murB,1.046
same,Growth represented as mean colony biomass,gRNA murC,0.881
same,"Growth, mean colony biomass (n=4)",gRNA murI,0.5015
same,"Growth, mean colony biomass (n=4)",gRNA nadK,1.043
same,Growth represented as mean colony biomass,gRNA nusB,0.9929
same,Growth represented as mean colony biomass,gRNA plsB,0.8854
same,"Growth, mean colony biomass (n=4)",gRNA prmC,1.031
same,Growth represented as mean colony biomass,gRNA proS,1.0017
same,"Growth, mean colony biomass (n=4)",gRNA psd,1.234
same,"Growth, mean colony biomass (n=4)",gRNA pssA,0.9781
same,"Growth, mean colony biomass (n=4)",gRNA ptsI,1.151
same,Growth represented as mean colony biomass,gRNA racR,0.9577
same,"Growth, mean colony biomass (n=4)",gRNA rho,1.25
same,Growth represented as mean colony biomass,gRNA ribA,0.9663
same,Growth represented as mean colony biomass,gRNA ribC,0.899
same,"Growth, mean colony biomass (n=4)",gRNA ribD,1.034
same,Growth represented as mean colony biomass,gRNA ribF,0.9681
same,Growth represented as mean colony biomass,gRNA rimM,1.015
same,Growth represented as mean colony biomass,gRNA rluD,1.0361
same,"Growth, mean colony biomass (n=4)",gRNA rne,1.086
same,Growth represented as mean colony biomass,gRNA rpe,1.032
same,"Growth, mean colony biomass (n=4)",gRNA rplA,1.044
same,Growth represented as mean colony biomass,gRNA rplD,0.9769
same,Growth represented as mean colony biomass,gRNA rplE,0.973
same,Growth represented as mean colony biomass,gRNA rplJ,0.9047
same,Growth represented as mean colony biomass,gRNA rplO,0.9645
same,"Growth, mean colony biomass (n=4)",gRNA rplP,1.111
same,Growth represented as mean colony biomass,gRNA rplQ,1.063
same,Growth represented as mean colony biomass,gRNA rplS,0.9823
same,"Growth, mean colony biomass (n=4)",gRNA rplV,1.159
same,"Growth, mean colony biomass (n=4)",gRNA rplX,1.003
same,Growth represented as mean colony biomass,gRNA rplY,1.022
same,"Growth, mean colony biomass (n=4)",gRNA rpmC,1.247
same,Growth represented as mean colony biomass,gRNA rpmH,0.9499
same,Growth represented as mean colony biomass,gRNA rpmI,0.8822
same,"Growth, mean colony biomass (n=4)",gRNA rpoC,0.9718
same,"Growth, mean colony biomass (n=4)",gRNA rpoE,1.012
same,Growth represented as mean colony biomass,gRNA rpoH,1.025
same,"Growth, mean colony biomass (n=4)",gRNA rpsC,0.9823
same,"Growth, mean colony biomass (n=4)",gRNA rpsD,1.397
same,Growth represented as mean colony biomass,gRNA rpsE,1.159
same,Growth represented as mean colony biomass,gRNA rpsF,1.092
same,"Growth, mean colony biomass (n=4)",gRNA rpsG,0.9387
same,Growth represented as mean colony biomass,gRNA rpsH,1.028
same,"Growth, mean colony biomass (n=4)",gRNA rpsK,1.066
same,"Growth, mean colony biomass (n=4)",gRNA rpsL,0.9811
same,"Growth, mean colony biomass (n=4)",gRNA rpsM,1.056
same,"Growth, mean colony biomass (n=4)",gRNA rpsR,1.049
same,"Growth, mean colony biomass (n=4)",gRNA rpsT,1.1909
same,Growth represented as mean colony biomass,gRNA rsgA,0.9518
same,Growth represented as mean colony biomass,gRNA safA,0.9369
same,"Growth, mean colony biomass (n=4)",gRNA secA,1.053
same,Growth represented as mean colony biomass,gRNA secY,1.019
same,Growth represented as mean colony biomass,gRNA serS,1.011
same,Growth represented as mean colony biomass,gRNA ssb,1.001
same,Growth represented as mean colony biomass,gRNA sucA,0.955
same,"Growth, mean colony biomass (n=4)",gRNA suhB,0.9525
same,Growth represented as mean colony biomass,gRNA tilS,0.9992
same,Growth represented as mean colony biomass,gRNA tonB,0.9792
same,Growth represented as mean colony biomass,gRNA trmD,0.9503
same,Growth represented as mean colony biomass,gRNA tsaB,1.056
same,Growth represented as mean colony biomass,gRNA tsaD,0.9679
same,"Growth, mean colony biomass (n=4)",gRNA tsaE,1
same,Growth represented as mean colony biomass,gRNA tsf,1.027
same,Growth represented as mean colony biomass,gRNA tusE,1.013
same,Growth represented as mean colony biomass,gRNA tyrS,1.017
same,Growth represented as mean colony biomass,gRNA ubiB,0.9814
same,Growth represented as mean colony biomass,gRNA ubiD,0.9742
same,"Growth, mean colony biomass (n=4)",gRNA waaA,1.024
same,Growth represented as mean colony biomass,gRNA ydaS,0.9646
same,Growth represented as mean colony biomass,gRNA ydcD,0.9635
same,Growth represented as mean colony biomass,gRNA ydhL,0.9757
same,"Growth, mean colony biomass (n=4)",gRNA yedN,1.025
same,Growth represented as mean colony biomass,gRNA yejM,1.046
same,Growth represented as mean colony biomass,gRNA yffS,1.013
same,Growth represented as mean colony biomass,gRNA ygeF,0.9624
same,"Growth, mean colony biomass (n=4)",gRNA ygeN,1.008
same,Growth represented as mean colony biomass,gRNA yidC,0.8393
same,Growth represented as mean colony biomass,gRNA ymfE,0.903
same,Growth represented as mean colony biomass,gRNA ymiB,0.9243
same,"Growth, mean colony biomass (n=4)",gRNA yqeL,1.1914
same,Growth represented as mean colony biomass,gRNA yqgF,0.9509
same,"Growth, mean colony biomass (n=4)",gRNA zipA,1.134
same,"growth defect of CRISPRi strains for the compound's molecular target (LolCDE complex and LpxC, respectively)",[1],strongest growth defect
same,growth defect of the lgt CRISPRi mutant in the presence of compound,[1],did not demonstrate a growth defect
